In general, inhibition refers to the change of the read-out against control, counted positive when it falls.

The values that follow come from ChEMBL document CHEMBL1139737, “Distachyasin: A new antioxidant metabolite from the leaves of Carex distachya” (Bioorg Med Chem Lett, 2006).

What all share (assay type): functional
A short description of assay [1]: Hydrogen peroxide radical scavenging activity at 0.1 mg/ml.
Assay [2] in a line: Nitric oxide radical scavenging activity assessed as reduction in nitrite concentration at 0.5 mg/ml. The arrangement: scale not given: the % may be the effect or the level left.
Assay [3] in a line: Hydrogen peroxide radical scavenging activity at 0.2 mg/ml.
Assay [4] is described as follows: Superoxide radical scavenging activity at 0.5 mg/ml.
Assay [5] is described as follows: Nitric oxide radical scavenging activity.
The nature of assay [6]: Inhibition of TBARS formation.
The nature of assay [7]: Inhibition of TBARS formation at 0.5 mg/ml.

Turning to `COC1=CC(=O)[C@@]2(O)C[C@H]3[C@H](c4ccccc4C3(C)C)[C@@H](O)C2=C1`, the Activity was 32% in assay [1]; 10.7% in assay [2]; 39% in assay [3]; 60% in assay [4]; “Dose-dependent effect” in assay [5]; “Dose-dependent effect” in assay [6]. The compound also gave an inhibition in assay [7] of 59%.
